Patent publication US20230303647A1, “CYCLIC CHEMERIN-9 DERIVATIVES” (priority 2020, published 2023)
Entries after “also recorded” stand apart in the source; their conditions may differ. *1 amine or outer side, *2 acyl side, *3 side chain or, on linkers, in order; H or OH if unused. Where a SMILES comes first, the peptide text is derived from it. Bridges are numbered along the chain shown (N, C = ends). [ ]: non-standard residue; d: D form. PEG4 = NCCOCCOCCOCCOCCC(=O)O; d(hCys) = N[C@H](CCS)C(=O)O; hCys = N[C@@H](CCS)C(=O)O; CH2 = C([*:1])[*:2]

Key:
[1] = in vitro; conditions: human, plasma
Procedure: (§1) Investigation of peptide stability in blood plasma was carried out as described previously. […] Samples taken at the respective time points were added to a solution of 0.1% SDS in ACN/EtOH (1:1). After incubation at −20° C. for 20 min, the supernatant was transferred to a new tube and incubated again at −20° C. for at least 3 h. The solution was filtered by centrifugation using Costar Spin-X tubes (0.22 μm) and the filtrate was analyzed by RP-HPLC on a VariTide RPC. […] Peaks were integrated and the peak containing the intact peptide was normalized to the sample taken at t=0 min (100%).

[2] = Plasma stability assay of Tam-labeled peptides; conditions: over a time period of 24 h
Procedure: as §1

[3] = biological target: T1, CMKLR1 (Homo sapiens, UniProt Q99788); experiment: Ca2+ mobilization assay (G protein-mediated signaling)
T1 sequence (Q99788 1-373): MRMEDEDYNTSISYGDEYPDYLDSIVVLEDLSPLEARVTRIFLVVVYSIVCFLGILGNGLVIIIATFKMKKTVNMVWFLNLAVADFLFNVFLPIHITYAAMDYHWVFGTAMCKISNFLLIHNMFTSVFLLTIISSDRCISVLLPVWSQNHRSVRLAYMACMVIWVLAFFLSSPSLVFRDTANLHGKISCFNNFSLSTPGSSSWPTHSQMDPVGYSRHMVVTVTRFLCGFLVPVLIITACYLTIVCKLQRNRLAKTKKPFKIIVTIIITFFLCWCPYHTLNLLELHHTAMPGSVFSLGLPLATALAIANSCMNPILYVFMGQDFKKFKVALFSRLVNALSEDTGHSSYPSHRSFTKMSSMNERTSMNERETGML
Procedure: COS-7 cells were transfected in 75 cm^2 cell culture flasks with 12 μg of the hCMKLR1_eYFP_GαΔ6qi4myr_pV2 plasmid overnight using Metafectene Pro. Transfected cells were seeded in 96 well plates (100 μL cell suspension in DMEM+10% FBS/well) and incubated overnight. The following day, the Ca^2+-mobilization was performed as described previously. […] All experiments were performed in triplicates, each experiment was repeated at least twice. Nonlinear regression was calculated using GraphPad Prism 5.

[4] = biological target: T1, CMKLR1; experiment: BRET-based arrestin 3 recruitment assay; conditions: for arrestin 3 recruitment to the CMKLR1 (in words): BRET, compared with chemerin-9
Procedure: HEK293 cells were transiently transfected using 75 cm^2 cell culture flasks with cell monolayers (confluency of ˜80%). Plasmid DNA of the C-terminally eYFP tagged human CMKLR1 and the chimeric G protein GαΔ6qi4myr in a pVitro2 vector (7.8 μg) and Renilla-luciferase 8-tagged Arrestin 3 in pcDNA3 (0.2 μg) and 24 μl MetafectenePro were separately added to 900 μl DMEM/Ham's F12 and incubated for 10 min before unification and incubation at RT for 20 min. […] The plasmid solution was added and cells were incubated overnight before seeding. Cell seeding was carried out in white 96-well polystyrene cell culture microplates, coated with poly-D lysine. […] Afterwards, the cells were incubated overnight at 37° C. The assay was performed under unsterile conditions. […] Afterwards, the cells were stimulated with the peptides in different concentrations (10^−5 to 10^−12 M) dissolved in BRET buffer. 50 μl of the peptide dilution were used for cell stimulation. Buffer without peptide was used as a negative control. […] The values of the negative control were subtracted, non-linear regression was calculated using GraphPad Prism. […] All measurements were performed in four technical replicates, all experiments were repeated at least twice.
The bioluminescence resonance energy transfer (BRET) assay was used to determine the potency of cyclic chemerin variants to recruit arrestin 3 to the CMKLR1 receptor after stimulation. HEK293 cells were transiently transfected with CMKLR1 receptor fused with eYFP fluorophore and Arrestin 3 tagged with Rluc8 luciferase. The transfected cells were seeded, incubated with the luciferase substrate coelenterazine-h and stimulated with different peptide concentrations, resulting in measurable BRET signals.

[5] = biological target: T1, CMKLR1; experiment: Fluorescence microscopy of CMKLR1 internalization and arrestin 3 recruitment; assay type: cell-based; design: expressed in transfected cells; host or cells: HEK293; conditions: HEK293 cells, 1 μM peptide
Procedure: Ibidi 15μ-slides were coated with poly D-lysine before cell seeding. Cells were washed with DPBS prior to detachment with 1 ml trypsin/EDTA. […] The cell suspension was diluted to 140,000 cells/200 μl, which were seeded. Incubation was carried out overnight at 37° C. Afterwards, cells were transiently transfected. Plasmid DNA of hCMKLR1_eYFP_GαΔ6qi4myr_pV2 (0.9 μg) and mCherry_Arr3_pcDNA3 (0.1 μg) and 8 μl Lipofectamine were separately added to 100 μl DMEM/Ham's F12 and incubated for 10 min before unification and incubation at RT for 20 min. Incubation was carried out overnight at 37° C. […] The medium was replaced by 200 μl of OptiMEM and the to status was documented. The OptiMEM was then replaced by 200 μl of 1 μM peptide in OptiMEM. Fluorophore excitation was analyzed using different filters, depending on the emission wavelength of the fluorophore and the time of exposure was adjusted to each fluorophore individually. All images were processed identically with the AxioVision software (Carl Zeiss AG, Oberkochen, Germany).
To verify the arrestin-recruitment and analyze the internalization of the CMKLR1 receptor itself, HEK293 cells were used and transiently transfected with fluorescent labeled variants of the two molecules.
FIG. 2: Internalization of CMKLR1 and arrestin 3 recruitment. HEK293 cells expressing the hCMKLR1 (green) and arrestin 3 (Arr3; red) due to transient transfection were used for the internalization studies.

C[C@H](NC(=O)[C@H](Cc1ccccc1)NC(=O)[C@H](CCC(N)=O)NC(=O)CNC(=O)[C@@H]1CCCN1C(=O)[C@H](Cc1ccccc1)NC(=O)[C@H](Cc1ccc(O)cc1)NC(=O)c1ccc(C(=O)O)c(-c2c3ccc(=[N+](C)C)cc-3oc3cc(N(C)C)ccc23)c1)C(=O)N[C@@H](Cc1ccccc1)C(=O)N[C@@H](CO)C(=O)O [$$ 2, Tam-chemerin-9]
half-life [1]: < 12 min

C[C@@H]1NC(=O)[C@H](Cc2ccccc2)NC(=O)[C@H](CCC(N)=O)NC(=O)[C@H](NC(=O)[C@@H]2CCCN2C(=O)[C@H](Cc2ccccc2)NC(=O)[C@@H](N)Cc2ccc(O)cc2)CSCSCC[C@@H](C(=O)O)NC(=O)[C@H](Cc2ccccc2)NC1=O [$$ 9, [c4,X9-TA]-chemerin-9] (H-YFP[dC]QFAF[hCys]-OH; linker 4-9 via CH2)
stability in blood plasma [2]: completely stable
pEC50 ± SEM ([3]; COS-7 cells transfected with hCMKLR1_eYFP_GαΔ6qi4myr, normalized to chemerin-9): 7.429 ± 0.110

C[C@@H]1NC(=O)[C@H](Cc2ccccc2)NC(=O)[C@H](CCC(N)=O)NC(=O)[C@H](NC(=O)[C@@H]2CCCN2C(=O)[C@H](Cc2ccccc2)NC(=O)[C@H](N)Cc2ccc(O)cc2)CCSSC[C@@H](C(=O)O)NC(=O)[C@H](Cc2c[nH]c3ccccc23)NC1=O [$$ 15, [y1,x4,W8,C9]-chemerin-9] (H-[dY]FP[d(hCys)]QFAWC-OH; disulfide 4-9)
arrestin 3 recruitment to the CMKLR1 (in words) [4]: no longer able to induce arrestin 3-recruitment; also recorded: completely abolishes arrestin recruitment
arrestin 3 recruitment and internalization of the CMKLR1 ([5]; 30 min stimulation): neither internalization of the hCMKLR1 nor arrestin 3 recruitment could be detected
G protein signaling activity (in words) ([3]; Ca2+ mobilization assay): significantly decreased activity
EC50 ([3]; pEC50 ± SEM, COS-7 cells transfected with hCMKLR1_eYFP_GαΔ6qi4myr, normalized to chemerin-9): 207 nM

C[C@@H]1NC(=O)[C@H](Cc2ccccc2)NC(=O)[C@H](CCC(N)=O)NC(=O)[C@H](NC(=O)[C@@H]2CCCN2C(=O)[C@H](Cc2ccccc2)NC(=O)[C@H](Cc2ccc(O)cc2)NC(=O)CCOCCOCCOCCOCCN)CCSSC[C@@H](C(=O)O)NC(=O)[C@H](Cc2c[nH]c3ccccc23)NC1=O [$$ 18, EG4-[x4,W8,C9]-chemerin-9] (H-[PEG4]YFP[d(hCys)]QFAWC-OH; disulfide 5-10)
arrestin 3 recruitment to the CMKLR1 (in words) [4]: accepted
EC50 ([4]; EC50, HEK293 cells, CMKLR1-eYFP and Rluc8-arrestin 3, 15 min after agonist addition): 418 nM
Emax ([4]; read-out: Emax [%] ± SEM): 69 ± 8%
arrestin 3 recruitment [5]: good arrestin 3 recruitment
receptor internalization ([5]; compared to chemerin-9): slightly lower receptor internalization
EC50 [3]: 193 nM
